Data on 3 substances can be found in US20190255083A1 (priority 2011, published 2019).

In assay [1] the test system is pathogenic strains of Campylobacter. The note with it: background statement; cited from earlier work.
Assay [2] has as its system mixed microbiota of three infants (fecal slurry). The assay can be described thus: Anaerobic culture of infant fecal microbiota with oligosaccharide substrate. The assay is classed as cell-based, human infant feces. The note with it: 24 h. On the procedure: First, the impact of 2′-FL and HMO were examined on fresh samples of mixed microbiota of three infants. A carbohydrate-free basal medium was prepared according to Hughes (Hughes S, et al. 2008 FEMS Microbiol Ecol, 64(3): 482-93) to study the growth of fecal bacteria during fermentation of human milk oligosaccharides (HMO) or 2′-FL. This basal medium contained per liter: 2 g peptone (Oxoid Ltd., Basingstoke, UK), 2 g yeast extract (Oxoid), 0.1 g NaCl, 0.04 g K2HPO4, 0.01 g MgSO4.7H2O, 0.01 g CaCl2.6H2O, 2 g NaHCO3, 0.005 g haemin (Sigma), 0.5 g L-cysteine HCl (Sigma), 0.5 g bile salts (Oxoid), 2 ml Tween 80, 10 μl vitamin K (Sigma), and 4 ml of 0.025% (w/v) resazurin solution. Anaerobic culture methods were those described in Bryant (Bryant, M 1972 Am J Clin Nutr, 25(12): 1324-8) using Hungate culture tubes, sealed with butyl rubber septa. Media were prepared and maintained anaerobically using O2-free CO2.
Fresh fecal samples were collected from three healthy babies, identified as A, B and C, who had not received antibiotics or pre/probiotics and had no history of gastrointestinal disorder. Fresh human infant feces were added to phosphate-buffered sterile anaerobic saline solution (1:10 feces to saline), mixed in a blender for 60 s, homogenized and filtered through a double layer of sterile cheesecloth. 2 g/L 2′FL and 5 g/L HMO were dissolved for 1 hour in medium before inoculation with 10% (v/v) fecal slurry prepared as above. Hungate tubes containing 2′-FL or HMO were inoculated with fecal material, serving as the treatment. Hungate tubes containing no substrate were also inoculated with feces, to serve as negative control. All tubes were incubated at 37° C. Culture supernatant samples were taken at 24 h. All samples were stored at −20° C. for further analysis. FIGS. 1, 2 and 3 show the results. Prebiotics are associated with an increase in the numbers of microbiota, especially bifidobacteria and lactobacilli, a decrease in gut pH, and an increase in lactic acid. […] These changes are all characteristic of prebiotics.

The subject of assay [3] is purified bacterial strains isolated from human microbiota (Table 1: Bifidobacterium longum, Bacteroides vulgatus, Bacteroides fragilis, Clostridium …). In kind it is cell-based, bacterial isolates, mainly from human (infant) feces. The settings on record: for growth (optical density, OD 600 nm) of individual bacterial isolates / final culture pH of individual bacterial isolates: 2 g/L 2′-FL, 3-FL, LDFT or FOS, 5 g/L HMOS, ZMB1 medium, for most of these bacteria; for growth (optical density, OD 600 nm) of individual bacterial isolates / final culture pH of individual bacterial isolates / decrease in culture pH compared with FOS: 48 h; for growth (optical density, OD 600 nm) of individual bacterial isolates: anaerobic, 37° C.; for decrease in culture pH compared with FOS: 2 g/L each, in most cases; for production of lactic acid: summary statement, for FOS: fecal slurrys and individual bacteria of the human microbiome.

Take 2′-fucosyllactose [2′-FL]: the “Campylobacter binding and infectivity” value in assay [1] is “inhibited”. Also, the “pH of infant microbiota cultures” value in assay [2] (2′-FL 2 g/L, HMOS 5 g/L, three microbial communities, FIG. 2) is reported as “pH is reduced”. Moreover, the “lactic acid produced in infant microbiota cultures” value in assay [2] (2′-FL 2 g/L, HMOS 5 g/L, three microbial communities, compared to controls, FIG. 3) is given as “significantly higher amounts of lactic acid are produced compared to controls”. In assay [2] (2′-FL at 2 g/L, HMOS at 5 g/L, fecal slurry of 3 infants (A, B, C), 37° C., anaerobic, vs no-substrate control, FIG. 1), the “total bacteria (bacterial growth) in infant microbiota cultures” value is given as “induced an increase in total bacteria”. Besides, in assay [3], the “growth (optical density, OD 600 nm) of individual bacterial isolates” value (“growth (optical density, OD 600 nm)” below) was “growth was stimulated (to various degrees)”; the “final culture pH of individual bacterial isolates” value (“final culture pH” for short) was “the pH of cultures decreased”; the “decrease in culture pH compared with FOS” value is “at least as great”; the “production of lactic acid” value is reported as “induce the production of lactic acid”.
As for 3-fucosyllactose [3-FL], in assay [3], the “growth (optical density, OD 600 nm)” value is “growth was stimulated (to various degrees)”; the “final culture pH” value was “the pH of cultures decreased”; the “decrease in culture pH compared with FOS” value is listed as “at least as great”; the “production of lactic acid” value is listed as “induce the production of lactic acid”.
Consider lactodifucotetraose [LDFT], for which, in assay [3], the “growth (optical density, OD 600 nm)” value is “growth was stimulated (to various degrees)”; the “final culture pH” value is on record as “the pH of cultures decreased”; the “decrease in culture pH compared with FOS” value is “at least as great”; the “production of lactic acid” value is “induce the production of lactic acid”.
